Experimental data published in US20090048160A1, “Antimicrobial activity of bovine bactericidal/permeability-increasing protein (BPI)-derived peptides against Gram-negative bacterial mastitis isolates” (priority 2007, published 2009).
Read-outs that look alike come from different tables or passages of the source. Ends that are not written are not given here.

What was measured:
Assay type in all cases: cell-based
E. coli strain P4 = conditions: for Mean log10 colony forming units: milk, 6 hours at 37° C.
Description: Milk and blood samples were aseptically collected from 8 clinically healthy primiparous Holstein cows in mid-lactation with milk somatic cell counts of <150,000 cells/ml. All cows were determined to be free of intramammary pathogens by the absence of growth on blood agar plates spread with milk samples aseptically collected from each animal on 3 different days. For the preparation of whey, milk samples were centrifuged at 44,000×g at 4° C. for 30 min, and the fat layer removed with a spatula. The skim milk was transferred into another sterile tube, centrifuged for an additional 30 min, and the translucent supernatant collected. Milk and whey samples were pasteurized by heating at 63° C. for 30 min. For the preparation of serum, blood was collected from the coccygeal vein into vacutainer tubes containing gel and clot activator (BD Biosciences) for serum separation. The tubes were inverted ×5, the blood allowed to clot for 30 min, and the tubes centrifuged at 1500×g for 15 min. The clear serum supernatants were aseptically transferred into sterile tubes and heat-inactivated by incubating at 56° C. for 30 min. An aliquot of each sample was plated on blood agar plates and samples that were free of detectable bacterial growth were stored at −20° C.
Overnight bacterial cultures of E. coli strain P4 grown in trypticase soy broth were diluted 1:1,000 in brain heart infusion broth and incubated at 37° C. for 2 hours while shaking at 225 rpm. The log-phase bacteria were diluted 1:10 in brain heart infusion broth to obtain a final concentration of […]. 0.01 ml of the bacterial inoculum was added to a 1.5 ml sterile microcentrifuge tube containing 0.04 ml of serum, milk, or whey. A 0.05 ml aliquot of either peptide or CBS alone was added to each tube. The samples were then shaken at 100 rpm for 6 hours at 37° C. The sample mixtures were subsequently serially diluted in sterile phosphate-buffered saline and plated on MacConkey agar plates (BD Biosciences). The plates were incubated overnight at 37° C. and the colonies enumerated.
To determine whether bBPI142-169 and bBPI90-99,148-161 retained their bactericidal activity in physiological fluids, the peptides were incubated with E. coli strain P4 (1×10^5 CFU) in the presence of serum (Table 2) or milk (Table 3).
However, bBPI90-99,148-161 was able to inhibit >99% of the growth of E. coli in milk. Because milk appeared to have an inhibitory effect on the bactericidal activity of bBPI90-99,148-161, the peptides were subsequently evaluated for their ability to retain activity in whey, which is the casein-depleted, protein-rich liquid fraction of milk (Table 4).

Escherichia coli = test: microbe, parasite or virus in culture
Text: (§1) Bacterial isolates of Escherichia coli, Klebsiella pneumonia, Serratia marcescens, Pseudomonas aeruginosa, Enterobacter cloacae, and Enterobacter aerogenes, which were obtained from clinical cases of bovine mastitis, were used to assess the bactericidal activity of peptides in a broth microdilution assay. Isolates were obtained from repositories at Cornell University (gift of Dr. Y. H. Schukken; Quality Milk Production Services Program, Cornell University, Ithaca N.Y.) and the USDA Beltsville Agricultural Research Center. […] A. J. Bramley, Institute for Animal Health, Compton Laboratory, Newbury, England), which was originally isolated from a clinical case of mastitis ([…]. Dairy Res. 43: 205-211) was also used to assess the bactericidal activity of the peptides in biological fluids. Reference strains of E. coli (ATCC 25922) and Staphylococcus aureus (ATCC 29213) were obtained from a commercial source (American Type Culture Collection (ATCC), Manassas, Va.). To obtain fresh inoculums for evaluation, a sterile loop of each bacterial glycerol stock was streaked on a blood agar plate. After an overnight incubation at 35° C., a single uniform colony was picked and sub-passaged by streaking on a new blood agar plate and incubating the plate overnight at 35° C. To evaluate the antimicrobial activity of the peptides against various clinical mastitis bacterial isolates, the minimum inhibitory concentration (MIC) and the minimum bactericidal concentration (MBC) of these peptides against the isolates were determined using a standardized broth microdilution assay. In addition to the mastitis isolates, E. coli (ATCC 25922) and S. aureus (ATCC 29213) reference strains were evaluated. […] The assays were performed in accordance with Clinical and Laboratory Standards Institute (CLSI) [formerly National Committee for Clinical Laboratory Standards (NCCLS)] guidelines (National Committee for Clinical Laboratory Standards. 1999. Methods for Determining Bacterial Activity of Antimicrobial Agents: Approved Guideline. Wayne, Pa.; National Committee for Clinical Laboratory Standards. 2002. Performance Standards for Antimicrobial Disk and Dilution Susceptibility Tests for Bacteria Isolated from Animals: Approved Standard. 2nd Edition, Wayne, Pa.). […] The bacterial suspension was then diluted 100-fold in cation-adjusted Mueller-Hinton broth to reach a final inoculum concentration of 10^6 CFU/ml. […] A negative control column was included in the plate that included 100 μl of broth alone. The plates were incubated for 18 h at 35° C. with ambient air circulation and without shaking. The wells were subsequently inspected for cloudiness and pellet formation using a magnifying glass plate reader. The lowest concentration at which no pellet or cloudiness was apparent in a given well was identified as the MIC. […] The plates were incubated overnight at 35° C. and colonies subsequently enumerated. The MBC values were determined as the lowest concentration at which ≧99.9% of inoculated bacteria were killed. All assays were performed in triplicate and the MIC and MBC range reported.

Klebsiella pneumoniae = test: microbe, parasite or virus in culture
Text: as §1

Row | Sequence | Mean log10 colony forming units (E. coli strain P4; peptide 20 μg/ml) | Mean log10 colony forming units (E. coli strain P4; peptide 200 μg/ml) | Mean log10 colony forming units (E. coli strain P4; peptide 2000 μg/ml) | inhibition of the growth of E. coli (E. coli strain P4; strain P4, 2 mg/ml) | MIC and MBC values (Escherichia coli) | MIC and MBC values (Klebsiella pneumoniae) | MBC (Escherichia coli) | MIC (Escherichia coli) | MBC (Klebsiella pneumoniae) | MIC (Klebsiella pneumoniae)
1 | KWKARKNFIKGSSLGWLIQLFRKR [bBPI90-99,148-161] | 8.65 log10 colony forming units | 7.89 log10 colony forming units | 6.55 log10 colony forming units | > 99% | ≤ 64 µg/mL | ≤ 64 µg/mL |  |  |  | 
2 | NSQIRPLPDKGLDLSIRDASIKIRGKWKARKNFIK [bBPI65-99] | 8.69 log10 colony forming units | 8.54 log10 colony forming units | 8.06 log10 colony forming units |  |  |  | >256 µg/mL | >256 µg/mL | >256 µg/mL | >256 µg/mL
3 | VRIHISGSSLGWLIQLFRKRIESLLQKS [bBPI142-169] | 8.67 log10 colony forming units | 8.55 log10 colony forming units | 7.99 log10 colony forming units |  |  |  |  |  |  | 
